This is an account of results in patent publication US11970497B2, “Tricyclic AKR1C3 dependent KARS inhibitors” (Novartis AG, priority 2019, dated 2024).

For orientation: AC50 means the concentration at which the activity in the assay is half-maximal.

The target of one assay is T1, Human KARS (Homo sapiens, UniProt Q15046).
T1 construct: Human KARS protein (residues 70-584) was expressed and purified; made in house
Description: KARS AMP Transcreener FP assay. Conditions: 50 nM human KARS, 20 μM ATP, 50 μM L-Lysine, 1 μM tRNA, 2 h at RT; read-out: Human KARS Transcreener AMP assay Qualified absolute AC50. The assay is classed as biochemical. An excerpt: KARS AMP Transcreener FP Assay to Measure Inhibition of KARS Enzymatic Activity
Lysine-tRNA synthetase (KARS) is an enzyme that catalyzes the reaction of ATP, L-lysine, and tRNA(Lys) to form AMP, diphosphate, and L-lysyl-tRNA(Lys).
The Transceener® AMP/GMP (BellBrook Labs, Madison, WI, USA) is a far red, competitive fluorescence polarization (FP) immunoassay based on the detection of AMP, which is one of the products of aminoacylation of tRNA. In this assay, a fluorescently labeled AMP (AMP Alexa Fluor 633) is used as the tracer that can be recognized by a specific antibody. In the absence of AMP, all the tracer molecules are bound to the antibodies leading to large polarization. The AMP product generated by the enzyme reaction will compete with the tracer for binding to the antibody which leads to a decrease in the polarization. As such, the enzyme activity is inversely proportional to FP values.
Human KARS protein (residues 70-584) was expressed and purified using a similar protocol to what is described in literature (Crystal structure of tetrameric form of human lysyl-tRNA synthetase: Implications for multisynthetase complex formation Guo, M., Ignatov, M., Musier-Forsyth, K., Schimmel, P., Yang, X. L. (2008) Proc. Natl. Acad. Sci. Usa 105: 2331-2336).
The KARS enzyme assay was performed in a final volume of 10 μL per well of Corning Costar 384 well plate, flat bottom, black non-treated plate. The final assay concentration was 20 mM HEPES pH 7.5, 1 mM DTT, 50 nM human KARS, 20 μM ATP, 50 μM L-Lysine, 1 μM tRNA and 8 mM MgCl2. Compounds were serial diluted 1:3 in DMSO in a master plate to generate a 10 concentration points dose response with maximum concentration of 10 mM. 50 nL from compound master plate were spotted in each well of a 384 black plate (Corning 3573), and 5 μL of enzyme mixture containing 100 nM KARS diluted in assay buffer (20 mM HEPES pH 7.5 and 1 mM OTT) were added. The reaction was started by adding 5 μL of the substrate mixture containing 40 μM ATP (final 20 μM ATP), 100 μM L-Lysine (final 50 μM), 2 μM tRNA (final 1 μM), 16 mM MgCl2 (final 8 mM MgCl2) diluted in assay buffer (20 mM HEPES pH 7.5 and 1 mM OTT). The mixtures were mixed and incubated for 2 h at RT before the termination of the reaction.
Transcreener® stop and detection buffers were prepared (1× stop buffer [final: 0.5×], 2 nM Tracer [final: 1 nM] and 5 μg/ml anti-AMP antibody [final: 2.5 μg/ml] in deionized water) and 10 μL of the stop and detection mix were added to the reaction wells, mixed for a minute and centrifuged at 1000 rpm for 10 seconds. The plates were read after incubating at RT for 30-60 min using Infinite® M1000 with the following settings: Excitation wavelength: 635 nm; Emission wavelength: 680 nm. FP values of DMSO controls were used to normalize the data and calculate IC50s of compounds using the Helios Software suite.

In assay [1] the test system is H460 (NRF2 pathway mutant cell line with high AKR1C3 expression). As to the kind of experiment: In vitro cell proliferation assay (CellTiter-Glo), H460. Conditions: Homo sapiens, NCI-H460, 72 h; H460 cells, 3 days, CellTiter-Glo, top concentration 10 μM; read-out: H460 Qualified absolute AC50. It is filed as cell-based. A digest of the protocol: (§1)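 Cells seeded day 1 (H460 800/well, Hara 2000/well) in RPMI-1640 with 10% FBS; compounds added day 2 as 8-point 1:5 dilutions from 10 μM top. After 3 days at 37 °C, viability read by CellTiter-Glo luminescence, normalized to DMSO and MG132 (30 μM) controls to derive percentage activity and AC50.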
For orientation: ATP-based viability assays read luminescence as a measure of living cells.

In assay [2] the test system is Hara (NRF2 pathway wild type cell line with low AKR1C3 expression). As to the kind of experiment: In vitro cell proliferation assay (CellTiter-Glo), Hara. It is filed as cell-based. Conditions: 72 h; Hara cells, 3 days, CellTiter-Glo, top concentration 10 μM; read-out: HARA Qualified absolute AC50. A digest of the protocol:
as §1

Structures are written as SMILES.

T1 sequence (Q15046 70-584): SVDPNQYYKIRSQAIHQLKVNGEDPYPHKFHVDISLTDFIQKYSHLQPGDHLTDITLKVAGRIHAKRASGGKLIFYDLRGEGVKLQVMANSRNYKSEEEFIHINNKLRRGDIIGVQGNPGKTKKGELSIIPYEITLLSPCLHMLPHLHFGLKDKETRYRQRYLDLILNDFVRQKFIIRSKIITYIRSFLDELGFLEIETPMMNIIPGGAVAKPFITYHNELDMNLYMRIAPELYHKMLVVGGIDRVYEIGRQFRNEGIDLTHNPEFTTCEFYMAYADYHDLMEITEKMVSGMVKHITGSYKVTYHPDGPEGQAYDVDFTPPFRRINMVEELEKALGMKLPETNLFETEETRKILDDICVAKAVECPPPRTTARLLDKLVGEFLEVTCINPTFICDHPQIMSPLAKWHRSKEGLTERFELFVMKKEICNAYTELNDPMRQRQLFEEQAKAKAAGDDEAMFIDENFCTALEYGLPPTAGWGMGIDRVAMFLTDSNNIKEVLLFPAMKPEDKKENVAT

With `CN1c2ccc(F)cc2C(O)CC12CCN(C(=O)NCc1ccc(F)c(NCCO)c1)CC2` (stereo not drawn) [Example 165, 6′-fluoro-N-(4-fluoro-3-((2-hydroxyethyl)amino)benzyl)-4′-hydroxy-1′-methyl-3′,4′-dihydro-1′H-spiro[piperidine-4,2′-quinoline]-1-carboxamide], the half-maximal activity concentration (AC50) at Human KARS is 199 nM; in assay [1], 49 nM; in assay [2] it was 23 nM.

On to `NC(=O)c1cc(CNC(=O)N2CCC3(CC2)CC(O)c2cc(F)cc(F)c2N3)ccc1F` (racemic) [Example 157, N-(3-carbamoyl-4-fluorobenzyl)-6′,8′-difluoro-4′-hydroxy-3′,4′-dihydro-1′H-spiro[piperidine-4,2′-quinoline]-1-carboxamide], for which the AC50 at Human KARS came to 34.1 nM; in assay [1], 0.1 nM; in assay [2], 2 nM.

Take `O=C(NCc1ccc(F)cc1)N1CCC2(CC1)C[C@@H](O)c1cc(F)ccc1N2` (single isomer, unassigned) [Example 152]: the figures for the AC50 (on Human KARS; in assay [1]; in assay [2]) were 9.1 nM, 21 nM and 16 nM, respectively.

As to `Nc1cc(CNC(=O)N2CCC3(CC2)CC(O)c2cc(F)ccc2N3)ccc1F` (racemic) [Example 158, N-(3-amino-4-fluorobenzyl)-6′-fluoro-4′-hydroxy-3′,4′-dihydro-1′H-spiro[piperidine-4,2′-quinoline]-1-carboxamide], the AC50 at Human KARS turned out to be 42.1 nM; in assay [1], 33 nM; in assay [2] it was 6 nM.

Take `O=C(NCc1ccc(F)c(CO)c1)N1CCC2(CC1)CC(O)c1cc(F)ccc1N2` (racemic) [Example 159, 6′-fluoro-N-(4-fluoro-3-(hydroxymethyl)benzyl)-4′-hydroxy-3′,4′-dihydro-1′H-spiro[piperidine-4,2′-quinoline]-1-carboxamide]: the AC50 worked out at 45.9 nM on Human KARS, 53 nM in assay [1] and 67 nM in assay [2].

On to `O=C(NCc1ccc(F)cc1)N1CCC2(CC1)C[C@H](O)c1cc(F)ccc1N2` (single isomer, unassigned) [Example 153], for which the half-maximal activity concentration (AC50) was more than 10000 nM at Human KARS, 2260 nM in assay [1] and 2500 nM in assay [2].

On to `O=C(NCc1ccc(F)cc1O)N1CCC2(CC1)C[C@@H](O)c1cc(F)ccc1N2` (single isomer, unassigned) [Example 154a], for which the concentration at half-maximal activity (AC50) at Human KARS worked out at 11.7 nM; in assay [1], 5 nM; in assay [2] it was 5 nM.
